In patent US9573895B2, “Tetracycline compounds” (Tetraphase Pharmaceuticals, Inc., priority 2012, dated 2017):
In brackets after ≈: the same amount, converted by molar mass.

Tested on: Burkholderia cenocepacia BC240 (Cystic fibrosis isolate, MDR)
Test: MIC assay BC240
Assay type: cell-based

| SMILES | MIC BC240 (Table 5) | MIC BC240 (Table 6) | MIC BC240 (Table 7) | MIC BC240 (control compounds, numeric) |
| --- | --- | --- | --- | --- |
| CN(C)c1cc(NC(=O)CNC(C)(C)C)c(O)c2c1C[C@H]1C[C@H]3[C@H](N(C)C)C(O)=C(C(N)=O)C(=O)[C@@]3(O)C(O)=C1C2=O [Tigecycline, tigecycline] | 16 µg/mL (≈ 27.3 µM) | 16 µg/mL (≈ 27.3 µM) | 16 µg/mL (≈ 27.3 µM) | 16 µg/mL (≈ 27.3 µM) |
| CN(C)[C@@H]1C(O)=C(C(N)=O)C(=O)[C@@]2(O)C(O)=C3C(=O)c4c(O)cccc4C[C@H]3C[C@@H]12 [Sancycline, sancycline] | 4 µg/mL (≈ 9.65 µM) | 4 µg/mL (≈ 9.65 µM) | 4 µg/mL (≈ 9.65 µM) | 4 µg/mL (≈ 9.65 µM) |
